Columns and labels:
[1] = biological target: T1, Wzt-CBD (also Wzt-CBM, WztC) (Aquifex aeolicus, UniProt O67181); assay: isothermal titration calorimetry; assay type: binding; conditions: 50 mM HEPES pH 8.0, 25 °C; 1:1 per CBD monomer; read-out: affinity
T1 construct: gene abcT4; N-terminal His6-TEV tag removed; E. coli C43(DE3); domain-swapped dimer

WzmWzt (full-length) = biological target: T2, WzmWzt (full-length) (Aquifex aeolicus, UniProt O67181); assay: NADH-coupled ATPase assay; assay type: biochemical; conditions: 1 mM ATP, 27 °C; CBD ligand, non-physiologically high concentration
T2 construct: gene abcT4; full-length wild-type transporter, Wzm2Wzt2; His-tagged (WzmWzt-His), purified as previously described; in lipid nanodiscs or DDM micelles; with O antigen ABC transporter permease Wzm (Transport permease protein)
T2 sequence (O67181 entry or part of it): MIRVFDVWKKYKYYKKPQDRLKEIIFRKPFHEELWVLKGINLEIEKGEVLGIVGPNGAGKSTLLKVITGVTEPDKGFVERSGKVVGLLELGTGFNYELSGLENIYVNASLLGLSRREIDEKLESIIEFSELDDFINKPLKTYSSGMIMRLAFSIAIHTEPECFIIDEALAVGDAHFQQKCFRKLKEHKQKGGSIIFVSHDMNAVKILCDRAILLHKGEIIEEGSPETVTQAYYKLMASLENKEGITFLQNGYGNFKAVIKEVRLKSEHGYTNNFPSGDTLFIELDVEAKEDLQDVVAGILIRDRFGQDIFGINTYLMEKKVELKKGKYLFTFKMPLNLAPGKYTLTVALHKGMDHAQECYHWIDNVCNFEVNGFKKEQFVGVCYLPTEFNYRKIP
T2 sequence (O67182 entry or part of it, further chain): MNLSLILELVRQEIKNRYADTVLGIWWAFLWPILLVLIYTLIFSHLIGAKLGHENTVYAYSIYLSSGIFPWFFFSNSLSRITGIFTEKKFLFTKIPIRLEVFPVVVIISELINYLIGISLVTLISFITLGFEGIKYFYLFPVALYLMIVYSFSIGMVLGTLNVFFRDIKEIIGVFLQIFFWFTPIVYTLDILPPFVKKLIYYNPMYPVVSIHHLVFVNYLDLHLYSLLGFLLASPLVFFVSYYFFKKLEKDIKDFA

T1 sequence (O67181 entry or part of it): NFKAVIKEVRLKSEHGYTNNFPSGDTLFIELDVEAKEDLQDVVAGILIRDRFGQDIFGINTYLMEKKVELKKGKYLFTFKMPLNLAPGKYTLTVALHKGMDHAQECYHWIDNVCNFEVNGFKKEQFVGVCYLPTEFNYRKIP

**Q.** For CO[C@H]1[C@H](O)[C@@H](CO)OC(O)[C@H]1O (stereo partly drawn) [3-O-methyl-D-mannose], which Kd [1] is on record?
**A.** ~234 µM

**Q.** And the “% increase in ATPase activity at high concentration” value (WzmWzt (full-length))?
**A.** ~ 50%

Reference: publication PMC9445017, “Molecular basis for polysaccharide recognition and modulated ATP hydrolysis by the O antigen ABC transporter” (Nature Communications, 2022)
